This note sets out measurements from the NIST ThermoML archive (doi:10.1016/j.jct.2013.12.031).

For this data set the following is noted: Crystal; visual observation.

Numbers after ± are expanded uncertainties.

In the case of `Cc1ccc(S(=O)(=O)[O-])cc1.c1ccc2sc[nH+]c2c1` [benzothiazolium p-toluenesulfonate], the Normal melting temperature stood at 120.00 ± 0.5 °C.
